From US9682993B2, “Anticancer compounds” (ST. JUDE CHILDREN'S RESEARCH HOSPITAL, priority 2012, dated 2017) come the findings set out here.

Data set [1] is described as follows: Maximum tolerated dose study (weight loss). The class given is in vivo, C.B-17 scid mice. To be noted: 50 mg/kg four hour infusion daily for five days; day 5 of infusion. How it is done:
Xenograft tumors were first established from an SK-MEL-2 cell culture at the St. Jude Children's Research Hospital Xenograft Core. After these tumors were established as a mouse xenograft model, they were routinely maintained in the C.B-17 scid strain (Taconic Farms, Germantown, N.Y.). Experimental animals were prepared by transplanting small pieces of dissected tumors from donor animals into recipient mice. All animal studies were performed in accordance with the St. Jude Children's Research Hospital Animal Care and Use Committee. SK-MEL-2 xenograft tumors were transplanted into male C.B-17 scid mice on Day −21. On Days −7 to −5, a jugular vein catheter was surgically implanted into each mouse. […] Tumors were continuously measured during and after infusion periods, 5 times per week (weekdays). Tumor volumes were determined based on the following equation: Tuvol=(δ1/2+δ2/2)^1.5708, where δ1 and δ2 are diameters measured with a caliper at right angles of each other. […]
The in vivo effects, e.g. weight loss, of compound 20 were evaluated in mice using the methods described herein above. […] Weight of the test animals was determined daily (5 weight measurements/week). […]

For a further data set, the system named is HeLa. The experiment in a line: Drug combination assay, HeLa. The class given is cell-based. To be noted: HeLa cells; combined with AUDA (15 μM). The procedure:
Preliminary cytotoxic screenings for each drug used in drug combination assays were performed to determine their cytotoxic dose range. […] Eight concentrations were established by 1:3 serial dilutions of the single drugs and their combinations with the splicing modulators. All drug concentrations were evaluated in triplicate in 96-well cell culture plates. Assays of individual drugs and drug combinations were run on the same tissue culture plate. Cell viability was determined using the CellTiter-Glo reagent. Drug interactions, in terms of synergism, additive effect, or antagonism, were based on the drugs' Combination Index (CI) (Chou et al., Adv. Enzyme Regul. 1984, 22, 27).
Luminescence data obtained from the cell viability determinations were formatted per the requirements of the analytical software (viability data range: >0 and <1). The formatted data were analyzed with the software CalcuSyn 2.1 (Biosoft, Cambridge, UK), which provides quantitative CI values for the drug interaction analyses (see ranges in Supplementary Table S2). […] Therefore, in these two cases the drug interaction was evaluated by comparing the IC50 value of Sudemycin with that of the IC50 values resulting from the serial dilutions of the splicing modulator combined with a constant dose of the non-toxic drug.

The subject of data set [2] is SK-MEL-2 xenograft tumors. Nature of the data set: In vivo tumor xenograft study. Also on record: species or system C.B-17 scid mice. The procedure:
Xenograft tumors were first established from an SK-MEL-2 cell culture at the St. Jude Children's Research Hospital Xenograft Core. After these tumors were established as a mouse xenograft model, they were routinely maintained in the C.B-17 scid strain (Taconic Farms, Germantown, N.Y.). Experimental animals were prepared by transplanting small pieces of dissected tumors from donor animals into recipient mice. All animal studies were performed in accordance with the St. Jude Children's Research Hospital Animal Care and Use Committee. SK-MEL-2 xenograft tumors were transplanted into male C.B-17 scid mice on Day −21. On Days −7 to −5, a jugular vein catheter was surgically implanted into each mouse. […] Infusions were carried out by placing the animals inside a continuous infusion system (Instech Laboratories, Plymouth Meeting, Pa.), and delivering the vehicle or drug solution via the jugular catheter at a rate of 4 μL/min with a SP230iw syringe pump (WPI, Sarasota, Fla.). […] Tumors were continuously measured during and after infusion periods, 5 times per week (weekdays). Tumor volumes were determined based on the following equation: Tuvol=(δ1/2+δ2/2)^1.5708, where δ1 and δ2 are diameters measured with a caliper at right angles of each other. The size of the tumors ranged from 0.2 to 0.5 cm^3 at the times the infusions were initiated.
The efficacy of compound 20 in the inhibition of tumor growth in mice was evaluated using the methods as described herein above. Thus, SK-MEL-2 tumors were transplanted into male C.B-17 scid mice. The animals were subsequently infused over 4 h with either vehicle (8 mice) or compound 20 (9 mice) for 5 consecutive days.

For another data set, the system named is cell lines investigated. Nature of the data set: Drug combination assays, cell line not stated. It counts as cell-based. Conditions: all cell lines investigated.
In data set [3] the test system is MDM2 alternative splicing in Rh18 cells. The experiment in a line: In vitro alternative splicing assay (MDM2, RT-PCR). To be noted: Rh18, 8 h, PCR (FIG. 9). It counts as cell-based.
The mark [4] stands for this setting: 50 mg/kg over 4 h, once a day for 5 days.

As to `CNC(=O)O[C@@H](C)/C=C\C(=O)N[C@H]1CC[C@@H](C/C=C(C)/C=C/[C@@H]2C[C@]3(CO3)CC(C)(C)O2)CC1` [compound 20, (S,Z)-5-(((1R,4R)-4-((2E,4E)-5-((3R,5S)-7,7-Methyl-1,6-Dioxaspiro[2.5]Octan-5-Yl)-3-Methylpenta-2,4-Dien-1-Yl)Cyclohexyl)Amino)-5-Oxopent-3-En-2-Yl Methylcarbamate], the average weight loss in data set [1] stood at 12.7%. In addition, in the data set on HeLa, the “effect of soluble epoxide hydrolase inhibition on IC50” value is “improves the IC50”. For the same compound, in data set [2] (setting [4]), the “inhibition of tumor growth during the infusion period” value stood at 100% and the “inhibition of tumor growth subsequent to the dosing period” value is given as “significant inhibition”. Besides, in data set [2] (infusion over 4 h for 5 consecutive days), the “fatalities or behavioral changes versus control infusion” value is “No differences in fatalities or behavioral changes”. Further, in the data set on cell lines investigated, the “synergy with PI3K/mTOR inhibition” value is recorded as “synergy is also seen”. For the same compound, in data set [3], the “alternative MDM2 splicing” value is on record as “induction of alternative MDM2 splicing”.
